# Assays:
# [1] = target: full-length CYP46A1 (Homo sapiens, UniProt Q9Y6A2); experiment: Inhibition/stimulation of cholesterol hydroxylase activity at fixed 43 μM test compound; type: biochemical; conditions: 2.7 μM cholesterol, 43 μM compound; FIG. 4A-4C
# [2] = Brain levels of voriconazole; type: in vivo, C57/B6 J mice; conditions: after 5 daily intraperitoneal injections (60 mg/kg body weight)
# Experimental: The mice were sacrificed by cervical dislocation.
# Voriconazole was determined in serum and brain homogenates after the extraction with chloroform/methanol (2:1, v:v) and ethanol (10%, v/v, final), respectively. Voriconazole extract (100 μL) was then mixed with 200 μL acetonitrile, centrifuged at 10,000 g for 10 min, and 1 μL of the supernatant injected onto a Phenomenex Luna C18 3 μm column (100×2 mm) connected to the Agilent 1100 liquid chromatography-mass spectrometry system with an autosampler and solvent degasser. Gradient elution was with initial 35% B increasing to 100% B in 5 min (A=1% acetonitrile with 25 mM formic acid; B=100% acetonitrile with 25 mM formic acid). A structure analogue (UK115794, Pfizer Ltd) was used as internal standard. Ions were monitored in a positive mode at m/z 350 (voriconazole) and m/z 348 (internal standard).
# Sequence of full-length CYP46A1 (Q9Y6A2 whole entry): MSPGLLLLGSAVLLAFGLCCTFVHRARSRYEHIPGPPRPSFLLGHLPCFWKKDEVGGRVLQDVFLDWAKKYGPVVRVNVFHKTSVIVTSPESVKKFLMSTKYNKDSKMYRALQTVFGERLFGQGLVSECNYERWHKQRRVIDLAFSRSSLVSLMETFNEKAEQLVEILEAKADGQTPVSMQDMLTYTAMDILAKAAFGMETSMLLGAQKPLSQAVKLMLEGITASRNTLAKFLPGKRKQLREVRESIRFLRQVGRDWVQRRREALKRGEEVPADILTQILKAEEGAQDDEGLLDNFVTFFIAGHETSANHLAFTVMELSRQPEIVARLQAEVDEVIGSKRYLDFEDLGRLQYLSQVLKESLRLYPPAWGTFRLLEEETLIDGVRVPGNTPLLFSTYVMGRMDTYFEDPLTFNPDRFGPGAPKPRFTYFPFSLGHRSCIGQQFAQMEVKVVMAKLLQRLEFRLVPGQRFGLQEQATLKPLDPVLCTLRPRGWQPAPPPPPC
structure (smiles),measurement,setting,value
C[C@@H](c1ncncc1F)[C@](O)(Cn1cncn1)c1ccc(F)cc1F [voriconazole],inhibition of cholesterol hydroxylation (in words),[1],significant inhibition
same,level of voriconazole in the brain,[2],43+8 μg/g wet weight
same,concentration at 5 days,"[2]; male, C57/B6 J, mouse, brain, read-out: level of voriconazole in the brain",123 µM

# From patent US20170182047A9, “Post-Translational Regulation of Catalytic Activities of Cytochrome P450 46A1 and Uses Thereof” (The Board of Regents of the University of Texas System, priority 2007, published 2017)
